Data taken from the NIST ThermoML archive (doi:10.1021/je034048e).

Assay: molar heat capacity at constant pressure
Conditions: 101.33 kPa

CCCCCCCC/C=C/CCCCCCCC(=O)OCC(COC(=O)CCCCCCC/C=C/CCCCCCCC)OC(=O)CCCCCCC/C=C/CCCCCCCC [trielaidin]
molar heat capacity at constant pressure [J/K/mol], Small (less than 1 g) adiabatic calorimetry
Conditions	Crystal	Metastable crystal
8.85 K	–	2.656
9.73 K	–	8.854
10.55 K	–	11.51
11.43 K	–	19.48
12.54 K	–	24.79
13.08 K	–	28.33
14.42 K	–	36.3
14.92 K	–	40.73
16.44 K	–	50.47
16.93 K	–	56.67
18.55 K	–	70.83
18.95 K	–	75.26
20 K	79.69	88.54
20.71 K	–	89.43
21.09 K	–	93.86
22.99 K	–	110.68
23.34 K	–	113.34
25 K	115.11	123.96
25.34 K	–	130.16
25.67 K	–	134.59
27.78 K	–	148.75
28.07 K	–	150.52
30 K	168.23	168.23
30.29 K	–	168.23
30.55 K	–	171.77
31.33 K	–	184.17
31.83 K	–	196.57
33.13 K	–	197.45
33.17 K	–	195.68
35 K	203.65	212.5
35.4 K	–	219.59
37.51 K	–	236.41
39.64 K	–	254.12
40 K	247.92	256.78
41.87 K	–	272.71
44.15 K	–	292.19
45 K	292.19	301.05
46.49 K	–	312.56
48.88 K	–	332.92
50 K	327.61	345.32
51.31 K	–	350.63
53.78 K	–	370.11
55 K	371.88	380.74
56.3 K	–	393.13
58.84 K	–	412.61
60 K	407.3	416.15
61.42 K	–	425.89
65 K	442.72	451.57
66.67 K	–	466.62
69.33 K	–	480.79
70 K	469.28	486.99
72.01 K	–	500.27
74.71 K	–	516.21
75 K	504.7	522.4
77.43 K	–	531.26
80 K	531.26	548.97
80.16 K	–	548.08
82.91 K	–	563.13
85 K	557.82	575.53
85.67 K	–	580.84
88.45 K	–	595.01
90 K	584.39	602.09
91.24 K	–	610.06
94.03 K	–	625.12
95 K	610.95	628.66
96.84 K	–	639.28
99.66 K	–	654.33
100 K	637.51	655.22
100.5 K	–	656.99
103.85 K	–	678.24
105 K	655.22	681.78
106.65 K	–	689.75
109.51 K	–	701.26
110 K	672.93	708.35
112.39 K	–	714.54
115.27 K	–	726.94
118.14 K	–	740.22
120 K	717.2	752.62
121.03 K	–	753.5
123.91 K	–	765.9
126.79 K	–	778.29
129.68 K	–	792.46
130 K	761.47	796.89
132.57 K	–	805.74
135.47 K	–	812.83
138.36 K	–	826.99
140 K	788.03	832.31
141.26 K	–	842.93
144.16 K	–	850.01
147.07 K	–	864.18
149.97 K	–	875.69
150 K	823.45	876.58
152.88 K	–	887.2
155.78 K	–	906.68

Crystal
Conditions	molar heat capacity at constant pressure [J/K/mol]
10.52 K	3.542
11.9 K	8.854
12.76 K	23.91
14.41 K	29.22
16.16 K	44.27
17.98 K	59.32
19.96 K	75.26
22.02 K	93.86
24.22 K	111.56
26.5 K	130.16
28.88 K	149.64
35.94 K	215.16
38.34 K	255
40.46 K	267.4
42.73 K	264.74
45.11 K	290.42
47.47 K	311.67
49.86 K	329.38
52.29 K	347.97
54.77 K	367.45
57.28 K	389.59
59.83 K	409.07
62.4 K	409.96
65.01 K	435.63
67.64 K	457.77
70.3 K	473.71
72.97 K	489.64
75.67 K	503.81
78.39 K	521.52
81.12 K	535.69
83.86 K	550.74
86.62 K	565.79
89.39 K	580.84
92.18 K	595.01
95.56 K	609.18
99.01 K	629.54
104.65 K	654.33
107.48 K	666.73
110.32 K	677.36
113.16 K	689.75
116 K	701.26
118.85 K	713.66
121.7 K	725.17
124.56 K	734.02
127.41 K	742.88
130.27 K	758.82
133.13 K	766.78
135.99 K	775.64
138.85 K	786.26
141.71 K	796
144.57 K	804.86
147.42 K	815.48
150.23 K	826.99
153.02 K	837.62
155.77 K	850.01
